Measured values as given in ChEMBL document CHEMBL1201862, “PubChem BioAssay data set” (2004).
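Method: 48-hour compound exposure of cells in 96-well plates, five concentrations, linear interpolation of endpoints. Here, GI50 denotes the concentration required for 50% inhibition of growth.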 The source made the active and inactive calls. Rule as the data show it: active = GI50 up to about 1.1 µM and inactive = higher.

Assays:
Assay in all cases: growth of human tumour cells (NCI), 48 h
[1] = tested on: HCC 2998
[2] = tested on: HOP-92
[3] = tested on: SF-539
[4] = tested on: CAKI-1
[5] = tested on: OVCAR-4
[6] = tested on: SNB-19
[7] = tested on: A498
[8] = tested on: UACC-257
[9] = tested on: NCI-H522
[10] = tested on: ACHN
[11] = tested on: SW-620
[12] = tested on: NCI-H460
[13] = tested on: HOP-62
[14] = tested on: TK-10
[15] = tested on: OVCAR-3
[16] = tested on: M14
[17] = tested on: HL-60
[18] = tested on: MOLT-4
[19] = tested on: SF-295
[20] = tested on: HCT-116
[21] = tested on: OVCAR-5
[22] = tested on: SR
[23] = tested on: IGROV-1
[24] = tested on: HCT-15
[25] = tested on: SK-MEL-28
[26] = tested on: Malme-3M
[27] = tested on: RPMI-8226
[28] = tested on: U-251
[29] = tested on: LOX IMVI
[30] = tested on: UO-31
[31] = tested on: K562
[32] = tested on: NCI-H23
[33] = tested on: KM12
[34] = tested on: COLO 205
[35] = tested on: SF-268
[36] = tested on: SN12C
[37] = tested on: EKVX
[38] = tested on: KM-20L2
[39] = tested on: M19-MEL
[40] = tested on: 786-0
[41] = tested on: SK-OV-3
[42] = tested on: HT-29
[43] = tested on: SK-MEL-2
[44] = tested on: LXFL 529
[45] = tested on: XF498
[46] = tested on: OVCAR-8
[47] = tested on: SK-MEL-5
[48] = tested on: A549
[49] = tested on: CCRF-CEM
[50] = tested on: SNB-78
[51] = tested on: UACC-62
[52] = tested on: NCI-H226

Measured: GI50

COc1ccc(NC(=O)/C(Cc2cc(=O)oc3cc(O)ccc23)=N\NC(C)(C)C)c(OC)c1
inactive: [1] > 100 µM | [2] 53 µM | [3] > 100 µM | [4] > 100 µM | [5] > 100 µM | [6] > 100 µM | [7] 22.8 µM | [8] > 100 µM | [9] > 100 µM | [10] > 100 µM | [11] > 100 µM | [12] > 100 µM | [13] > 100 µM | [14] > 100 µM | [15] > 100 µM | [16] > 100 µM | [17] > 100 µM | [18] > 100 µM | [19] > 100 µM | [20] > 100 µM | [21] > 100 µM | [22] > 100 µM | [23] > 100 µM | [25] > 100 µM | [26] > 100 µM | [27] > 100 µM | [28] > 100 µM | [29] > 100 µM | [30] > 100 µM | [31] > 100 µM | [32] > 100 µM | [33] > 100 µM | [34] > 100 µM | [35] > 100 µM | [36] > 100 µM | [37] 12.6 µM | [38] > 100 µM | [39] > 100 µM | [40] > 100 µM | [41] > 100 µM | [42] > 100 µM | [43] > 100 µM | [44] > 100 µM | [45] > 100 µM | [46] > 100 µM | [47] > 100 µM | [48] > 100 µM | [49] > 100 µM | [50] > 100 µM | [51] > 100 µM | [52] > 100 µM
> 100 µM: [24]
